# “Also recorded” adds a separate entry of the source.
# Assays:
# [1] = tested on: Na+ channel (site 2) (antagonist radioligand); test: Receptor panel, inhibition of binding
# D3(h) (agonist effect) = D3(h) (agonist effect) (Homo sapiens, UniProt P35462); test: Receptor panel, block of downstream signaling; format: cell-based
# Description: (§1) It was also tested for its ability to block downstream signaling induced by agonists or antagonists of a given human receptor.
# [2] = target: alpha 1A (h) (antagonist effect) (Homo sapiens, UniProt P35348); test: Receptor panel, block of downstream signaling; format: cell-based; details: read-out: % Inhibition of Control
# Sequence of alpha 1A (h) (antagonist effect) (P35348 whole entry): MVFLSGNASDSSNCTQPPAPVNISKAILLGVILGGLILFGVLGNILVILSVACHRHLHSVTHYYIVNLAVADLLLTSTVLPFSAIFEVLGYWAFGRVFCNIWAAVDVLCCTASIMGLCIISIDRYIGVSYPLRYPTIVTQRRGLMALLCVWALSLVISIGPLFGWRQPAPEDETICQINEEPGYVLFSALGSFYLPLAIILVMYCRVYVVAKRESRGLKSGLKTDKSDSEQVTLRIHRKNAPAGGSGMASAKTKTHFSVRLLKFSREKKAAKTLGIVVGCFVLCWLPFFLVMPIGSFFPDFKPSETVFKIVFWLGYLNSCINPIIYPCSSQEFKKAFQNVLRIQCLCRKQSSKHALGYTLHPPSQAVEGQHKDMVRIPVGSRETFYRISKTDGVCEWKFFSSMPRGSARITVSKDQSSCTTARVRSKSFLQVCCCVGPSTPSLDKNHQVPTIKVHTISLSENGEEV
# Description: as §1
# in vivo = details: male, C57BL/6, mouse, sc, 10 mg/kg
# From the text: A plasma calibration curve was generated.
# Subcutaneous compound administration was accomplished by […]. Per oral administration was accomplished by gastric gavage. Intravenous administration was accomplished via jugular catheter.
# A brain calibration curve was generated.
# [3] = tested on: Abeta oligomer binding to primary neurons; test: Abeta 1-42 oligomer binding assay; format: cell-based, rat
# Description: In this assay, Abeta oligomers were brought in contact with mature primary neurons in culture and their binding was determined by immunohistochemistry (anti-Abeta antibody) and quantified by image processing. The amount of Abeta in neuronal dendrites is assessed by counting the number of labeled puncta on the neuritis. […] This labeling is associated with synapses, co-localizing with the post-synaptic scaffold protein PSD-95 (Lacor et al., '04). […] The number of synapses can also be quantified in this assay by immunofluorochemistry. Similar procedures for binding assays can be found in the literature. […] Review.
# Primary hippocampal neuronal culture was established as in the membrane trafficking assay above. […] Pretreatment with compounds to be tested lasted for 1 hr and addition of Abeta oligomers or no oligomer (vehicle alone) in a final concentration of 70 ul was followed by incubation for an additional 23 hrs.
# The plates were then washed 3× with PBS for 5 min each. The plates were blocked at RT for 1 hr in 5% goat serum and 0.5% Triton X-100 in PBS. […] Primary antibodies were incubated overnight at 4° C. The plates were then washed 3× with PBS for 5 min each. […] Secondary antibodies were incubated at RT for 1 hr. The plates were washed once with PBS. DAPI (4′,6-diamidino-2-phenylindole, Invitrogen) was then applied at 0.03 ug/ul and incubated at RT for 5 min, then washed with PBS.
# [4] = tested on: Abeta oligomer-induced memory deficits in wt C57BL/6 mice; test: Contextual fear conditioning, intrahippocampal Abeta oligomers; format: in vivo, mouse; details: before oligomers
# Description: Several pharmaceutical companies use this same model in their discovery efforts. Contextual fear conditioning is an accepted model of associative memory formation which correlates to human cognitive function and specifically the creation of new memories (Delgado '06). Abeta oligomers are injected into the hippocampus of wild-type animals immediately before conditioning training and memory is assessed via freezing behavior after 24 hours. See, for example, FIGS. 4 and 8. Details are provided in Example 9. […] This model system was chosen because intrahippocampal administration of oligomers allows rapid comparative assessment of compound activity and off-target toxicity. The results are shown graphically in FIG. 4.
# Compound II was tested in an animal model of a memory-dependent behavioral task known as fear conditioning. The study protocol was designed based on published protocols (See e.g. Puzzo D, Privitera L, Leznik E, Fà M, Staniszewski A, Palmeri A, Arancio O. Picomolar amyloid-beta positively modulates synaptic plasticity and memory in hippocampus. J. Neurosci. 2008 Dec. 31; 28(53):14537-45.). The formation of contextual memories is dependent upon the integrity of medial temporal lobe structures such as the hippocampus. […]
# [5] = tested on: SKOV-3 human ovarian cancer cell line; test: MTS tumor cell viability assay; format: cell-based
# Description: The cytotoxicity of compounds shown below was determined using the CellTiter96 Aqueous One Solution Assay (Promega, Madison, Wis.). […] The plate was read at 490 nm in a Victor3 plate reader (PerkinElmer Life and Analytical Sciences, Shelton, Conn.). The EC^50 value, defined as the concentration of the sigma ligand required to inhibit cell viability by 50% relative to untreated cells, was determined from the dose response curve for each cell line.
# [6] = tested on: neurons and glia in culture; test: In vitro neuronal and glial toxicity; format: cell-based; details: acute or chronic dosing, up to 50 μM, three days
# From the text: The sigma-2 receptor antagonists eliminated or reduced Abeta oligomer-induced changes in membrane trafficking.
# HepG2 tumor cell line = test: HepG2 toxicity; format: cell-based; details: 10 μM
# sigma-2 receptor [7] = details: 1 μM each; 18.4 nM [3H]-RHM-1
# Sigma-1 receptors = Sigma-1 receptors (Homo sapiens, UniProt Q99720); test: Sigma-1 competitive radioligand binding, [3H](+)pentazocine, Jurkat cell membranes
# Sequence of Sigma-1 receptors (Q99720 whole entry): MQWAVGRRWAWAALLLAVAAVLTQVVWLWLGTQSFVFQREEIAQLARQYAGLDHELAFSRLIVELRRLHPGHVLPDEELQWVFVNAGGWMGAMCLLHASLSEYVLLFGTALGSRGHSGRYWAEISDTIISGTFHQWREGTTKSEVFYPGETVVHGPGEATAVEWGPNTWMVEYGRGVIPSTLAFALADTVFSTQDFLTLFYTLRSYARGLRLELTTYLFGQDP
# Description: (§2) Reactions were terminated by rapid filtration through Whatman GF/C filters using a Brandel 12R cell harvester followed by two washes with ice-cold buffer. Radioactivity on the dried filter discs was measured using a liquid scintillation analyzer (Tri-Carb 2900TR; PerkinElmer Life and Analytical Sciences). The displacement curves were plotted and the Ki values of the test ligands for the receptor subtypes were determined using GraphPad Prism (GraphPad Software Inc., San Diego, Calif.). The percentage specific binding was determined by dividing the difference between total bound (disintegrations per minute) and nonspecific bound (disintegrations per minute) by the total bound (disintegrations per minute).
# sigma-2 receptor [8] = target: T1, sigma-2 receptor (Rattus norvegicus, UniProt Q5U3Y7); test: Competitive Radioligand Binding Assay 2, sigma-2, rat liver membrane homogenates; set-up: conducted using rat liver membrane homogenates; from tissue; host or cells: rat liver membrane homogenates; details: read-out: Ki at sigma-2 receptors
# T1 sequence (Q5U3Y7 1-176): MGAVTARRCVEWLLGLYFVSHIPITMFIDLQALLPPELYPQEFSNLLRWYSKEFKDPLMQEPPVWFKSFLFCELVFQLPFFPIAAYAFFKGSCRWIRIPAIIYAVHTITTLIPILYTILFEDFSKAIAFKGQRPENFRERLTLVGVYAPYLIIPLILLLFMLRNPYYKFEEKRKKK
# Description: Test compounds were dissolved in N,N-Dimethylformamide (DMF), dimethyl sulfoxide (DMSO) or ethanol and then diluted in 50 mM Tris-HCl pH 7.4 buffer containing 150 mM NaCl and 100 mM EDTA. Membrane homogenates were made from guinea pig brain for sigma-1 binding assay and rat liver for sigma-2 binding assay. Membrane homogenates were diluted with 50 mM Tris-HCl buffer, pH 8.0 and incubated at 25° C. in a total volume of 150 uL in 96 well plates with the radioligand and test compounds with concentrations ranging from 0.1 nM to 10 uM. After incubation was completed, the reactions were terminated by the addition of 150 uL of ice-cold wash buffer (10 mM Tris HCl, 150 mM NaCl, pH 7.4) using a 96 channel transfer pipette (Fisher Scientific, Pittsburgh, Pa.) and the samples harvested and filtered rapidly through 96 well fiber glass filter plate (Millipore, Billerica, Mass.) that had been presoaked with 100 uL of 50 mM Tris-HCl buffer. Each filter was washed four times with 200 uL of ice-cold wash buffer (10 mM Tris-HCl, 150 mM NaCl, pH 7.4).
# The binding affinity, Ki values was calculated using the method of Cheng and Prusoff.
# sigma-2 receptor [9] = target: T1, sigma-2 receptor; test: Sigma-2 competitive radioligand binding, [3H]DTG with 300 nM (+)pentazocine, rat cerebral cortex membranes
# Description: as §2
# Sequence of D3(h) (agonist effect) (P35462 whole entry): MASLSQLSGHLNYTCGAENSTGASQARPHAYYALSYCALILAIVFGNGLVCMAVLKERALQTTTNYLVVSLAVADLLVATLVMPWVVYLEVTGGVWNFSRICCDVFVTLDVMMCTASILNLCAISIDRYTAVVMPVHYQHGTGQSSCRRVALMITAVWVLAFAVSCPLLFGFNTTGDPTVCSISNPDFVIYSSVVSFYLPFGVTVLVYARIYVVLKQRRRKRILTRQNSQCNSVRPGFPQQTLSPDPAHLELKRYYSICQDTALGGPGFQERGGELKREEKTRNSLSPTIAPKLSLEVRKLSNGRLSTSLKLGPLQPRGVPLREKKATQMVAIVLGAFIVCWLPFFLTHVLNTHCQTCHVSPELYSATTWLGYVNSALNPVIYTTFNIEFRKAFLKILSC
structure (smiles),measurement,setting,value
COc1cc(CCC(C)NCc2ccc(C(F)(F)F)cc2)ccc1O (stereo not shown) [Compound II],% Inhibition of Control,[1]; Compound II 10 uM,54%
same,Other Targets: Na + ch2,[1]; Table 11E,Na + ch2 (2 uM)
same,Other Targets: D3,D3(h) (agonist effect); Table 11E,"D3 (4 uM), Mu"
same,inhibition at 10 µM,D3(h) (agonist effect); read-out: % Inhibition of Control,66%
same,inhibition at 10 µM,[2],56%
same,AUC,in vivo,385 ng·h/mL
same,Cmax,in vivo,279 ng/mL
same,Tmax,in vivo,30 min
same,Decrease of Abeta binding intensity (Abeta puncta),[3]; FIG. 3D,18%
same,Partial block of binding of Abeta oligomer ligand to neurons,[3]; imaging processing algorithm,about 25%
same,Effect on Abeta oligomer-induced memory deficits,[4],eliminated memory deficits; also recorded: completely blocked oligomer-mediated memory deficits at the 2 pmol dose
same,IC50,"[5]; Homo sapiens, SK-OV-3, tumor cell viability, 48 hrs",150000 ± 12000 nM
same,Action,[5]; by EC50 relative to siramesine,Antagonist
same,Neuronal or glial toxicity,[6],did not induce neuronal or glial toxicity
same,HepG2 toxicity,HepG2 tumor cell line,66%
same,Displacement of [3H]-RHM-1,sigma-2 receptor [7],partially displace
same,Ki,"Sigma-1 receptors; Ki at sigma-1 receptors, displacement of [3H]-(+)-pentazocine, human Jurkat cell membranes",500 nM
same,Ki,"Sigma-1 receptors; S1 binding Ki (nM), Table 11B",500 nM
same,Ki,"Sigma-1 receptors; Sigma 1 Binding Ki (nM), Table 2, own compounds",500 nM
same,Ki,"Sigma-1 receptors; Sigma Affinity (S1) nM, Table 11E, own compounds",500 nM
same,Ki,sigma-2 receptor [8],59.7 nM
same,Ki,"sigma-2 receptor [9]; Ki at sigma-2 receptors, displacement of [3H]DTG/300 nM (+)-pentazocine, rat neocortex homogenate",9 nM
same,Ki,"sigma-2 receptor [9]; S2 binding Ki (nM), Table 11B",9 nM
same,Ki,"sigma-2 receptor [9]; Sigma 2 Binding Ki (nM), Table 2, own compounds",9 nM
same,Ki,"sigma-2 receptor [9]; Sigma Affinity (S2) nM, Table 11E, own compounds",9 nM

# Source: patent US20140378460A1, “COMPOSITIONS AND METHODS FOR TREATING NEURODEGENERATIVE DISEASE” (COGNITION THERAPEUTICS, INC., priority 2011, published 2014)
